Data published in paper PMC12638379, “An innovative approach to development of new pyrazolylquinolin-2-one hybrids as dual EGFR and BRAF^V600E inhibitors” (Molecular Diversity, 2025).
Read-outs that look alike come from different tables or passages of the source.

Tested on: NCI 60 cancer cell lines
Test: NCI anticancer screening over a panel of 60 cancer cells, single concentration 10 µM
Type: cell-based, human
Conditions: Homo sapiens, read-out: % Growth Inhibition (GI %)
Method in brief: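 Primary single-dose screen at 10 µM over the NCI panel of 60 human tumour cell lines (leukemia, CNS, lung, colon, kidney, ovary, breast, prostate). The standard NCI Developmental Therapeutics Program protocol was used.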

COc1ccc2[nH]c(=O)cc(-n3ncc(/C(C)=N/Nc4ccc(C(=O)O)cc4)c3C)c2c1 [Compound 4h, (E)-4-(2-(1-(1-(6-methoxy-2-oxo-1,2-dihydroquinolin-4-yl)-5-methyl-1H-pyrazol-4-yl)ethylidene)hydrazineyl)benzoic acid]
inhibition at 10 µM (786-0, Renal cancer 786-0, 10 μM): < 5%
inhibition at 10 µM (A498, Renal cancer A498, 10 μM): < 5%
inhibition at 10 µM (A549, Non-small cell lung cancer A549/ATCC, 10 μM): < 5%
inhibition at 10 µM (ACHN, Renal cancer ACHN, 10 μM): < 5%
inhibition at 10 µM (BT-549, Breast cancer BT-549, 10 μM): < 5%
inhibition at 10 µM (CAKI-1, Renal cancer CAKI-1, 10 μM): < 5%
inhibition at 10 µM (CCRF-CEM, Leukemia CCRF-CEM, 10 μM): < 5%
inhibition at 10 µM (COLO 205, Colon cancer COLO 205, 10 μM): < 5%
inhibition at 10 µM (DU-145, Prostate cancer DU-145, 10 μM): < 5%
inhibition at 10 µM (EKVX, Non-small cell lung cancer EKVX, 10 μM): < 5%
inhibition at 10 µM (HCC 2998, Colon cancer HCC-2998, 10 μM): < 5%
inhibition at 10 µM (HCT-15, Colon cancer HCT-15, 10 μM): < 5%
inhibition at 10 µM (HCT-116, Colon cancer HCT-116, 10 μM): < 5%
inhibition at 10 µM (HL-60, Leukemia HL-60(TB), 10 μM): < 5%
inhibition at 10 µM (HOP-62, Non-small cell lung cancer HOP-62, 10 μM): < 5%
inhibition at 10 µM (HOP-92, Non-small cell lung cancer HOP-92, 10 μM): 38.5%
inhibition at 10 µM (HT-29, Colon cancer HT29, 10 μM): < 5%
inhibition at 10 µM (Hs-578T, Breast cancer HS 578T, 10 μM): < 5%
inhibition at 10 µM (IGROV-1, Ovarian cancer IGROV1, 10 μM): < 5%
inhibition at 10 µM (K562, Leukemia K-562, 10 μM): < 5%
inhibition at 10 µM (KM12, Colon cancer KM12, 10 μM): < 5%
inhibition at 10 µM (LOX IMVI, Melanoma LOX IMVI, 10 μM): < 5%
inhibition at 10 µM (Leukemia SR, 10 μM): < 5%
inhibition at 10 µM (MCF7, Breast cancer MCF7, 10 μM): 5.52%
inhibition at 10 µM (MDA-MB-231, Breast cancer MDA-MB-231/ATCC, 10 μM): 4.98%
inhibition at 10 µM (MDA-MB-435, Melanoma MDA-MB-435, 10 μM): < 5%
inhibition at 10 µM (MDA-MB-468, Breast cancer MDA-MB-468, 10 μM): < 5%
inhibition at 10 µM (MOLT-4, Leukemia MOLT-4, 10 μM): < 5%
inhibition at 10 µM (Melanoma M14, 10 μM): < 5%
inhibition at 10 µM (Melanoma MALM-3M, 10 μM): < 5%
inhibition at 10 µM (NCI-H23, Non-small cell lung cancer NCI-H23, 10 μM): < 5%
inhibition at 10 µM (NCI-H226, Non-small cell lung cancer NCI-H226, 10 μM): < 5%
inhibition at 10 µM (NCI-H322M, Non-small cell lung cancer NCI-H322M, 10 μM): < 5%
inhibition at 10 µM (NCI-H460, Non-small cell lung cancer NCI-H460, 10 μM): < 5%
inhibition at 10 µM (NCI-H522, Non-small cell lung cancer NCI-H522, 10 μM): < 5%
inhibition at 10 µM (NCI/ADR-RES, Ovarian cancer NCI/ADR-RES, 10 μM): < 5%
inhibition at 10 µM (OVCAR-3, Ovarian cancer OVCAR-3, 10 μM): < 5%
inhibition at 10 µM (OVCAR-4, Ovarian cancer OVCAR-4, 10 μM): < 5%
inhibition at 10 µM (OVCAR-5, Ovarian cancer OVCAR-5, 10 μM): < 5%
inhibition at 10 µM (OVCAR-8, Ovarian cancer OVCAR-8, 10 μM): < 5%
inhibition at 10 µM (Prostate cancer PC-3, 10 μM): < 5%
inhibition at 10 µM (RPMI-8226, Leukemia RPMI-8226, 10 μM): < 5%
inhibition at 10 µM (RXF 393, Renal cancer RXF 393, 10 μM): < 5%
inhibition at 10 µM (SF-268, CNS Cancer SF-268, 10 μM): < 5%
inhibition at 10 µM (SF-295, CNS Cancer SF-295, 10 μM): < 5%
inhibition at 10 µM (SF-539, CNS Cancer SF-539, 10 μM): < 5%
inhibition at 10 µM (SK-MEL-2, Melanoma SK-MEL-2, 10 μM): < 5%
inhibition at 10 µM (SK-MEL-5, Melanoma SK-MEL-5, 10 μM): < 5%
inhibition at 10 µM (SK-MEL-28, Melanoma SK-MEL-28, 10 μM): < 5%
inhibition at 10 µM (SK-OV-3, Ovarian cancer SK-OV-3, 10 μM): < 5%
inhibition at 10 µM (SN12C, Renal cancer SN12C, 10 μM): < 5%
inhibition at 10 µM (SNB-19, CNS Cancer SNB-19, 10 μM): < 5%
inhibition at 10 µM (SNB-75, CNS Cancer SNB-75, 10 μM): < 5%
inhibition at 10 µM (SW-620, Colon cancer SW-620, 10 μM): < 5%
inhibition at 10 µM (T47D, Breast cancer T-47D, 10 μM): < 5%
inhibition at 10 µM (TK-10, Renal cancer TK-10, 10 μM): < 5%
inhibition at 10 µM (U-251, CNS Cancer U251, 10 μM): < 5%
inhibition at 10 µM (UACC-62, Melanoma UACC-62, 10 μM): < 5%
inhibition at 10 µM (UACC-257, Melanoma UACC-257, 10 μM): < 5%
inhibition at 10 µM (UO-31, Renal cancer UO-31, 10 μM): 22.6%
